Laboratory results: the supplement of paper PMC10307832

Assays:
Assay in all cases: relative viability (nuclei count vs DMSO), 5 days (fraction); higher = more cells survive
Sunitinib + Olaparib = compound: CCN(CC)CCNC(=O)c1c(C)[nH]c(/C=C2\C(=O)Nc3ccc(F)cc32)c1C [Sunitinib] + O=C(c1cc(Cc2n[nH]c(=O)c3ccccc23)ccc1F)N1CCN(C(=O)C2CC2)CC1 [Olaparib] (partner 8 µM)
How it was run: (§1)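 Cells from lung cancer lines were seeded into 1536-well plates and, one day later, dosed by pin tool. Treatments were either a single drug or a fixed dose of an anchor drug with five library-drug doses (not always all listed) in √10 steps. After 5 days, nuclei were stained in a one-step fixation (final 0.05% Triton X-100, 1% formaldehyde, 1 ug/ml Hoechst) and counted on 4× images, and relative viability is the treated-to-vehicle nuclei ratio, as the median of duplicate plates.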

Sunitinib + Pemetrexed = compound: CCN(CC)CCNC(=O)c1c(C)[nH]c(/C=C2\C(=O)Nc3ccc(F)cc32)c1C [Sunitinib] + Nc1nc2[nH]cc(CCc3ccc(C(=O)N[C@@H](CCC(=O)O)C(=O)O)cc3)c2c(=O)[nH]1 [Pemetrexed] (partner 0.2 µM)
How it was run: as §1

Sunitinib + Bortezomib = compound: CCN(CC)CCNC(=O)c1c(C)[nH]c(/C=C2\C(=O)Nc3ccc(F)cc32)c1C [Sunitinib] + CC(C)C[C@H](NC(=O)[C@H](Cc1ccccc1)NC(=O)c1cnccn1)B(O)O [Bortezomib] (partner 0.002 µM)
How it was run: as §1

Sunitinib + Alpelisib = compound: CCN(CC)CCNC(=O)c1c(C)[nH]c(/C=C2\C(=O)Nc3ccc(F)cc32)c1C [Sunitinib] + Cc1nc(NC(=O)N2CCC[C@H]2C(N)=O)sc1-c1ccnc(C(C)(C)C(F)(F)F)c1 [Alpelisib] (partner 2 µM)
How it was run: as §1

Cell Line | relative viability (Sunitinib + Olaparib; first compound 0.02 µM) | relative viability (Sunitinib + Olaparib; first compound 0.06325 µM) | relative viability (Sunitinib + Olaparib; first compound 0.2 µM) | relative viability (Sunitinib + Olaparib; first compound 0.6325 µM) | relative viability (Sunitinib + Olaparib; first compound 2 µM) | relative viability (Sunitinib + Pemetrexed; first compound 0.02 µM) | relative viability (Sunitinib + Pemetrexed; first compound 0.06325 µM) | relative viability (Sunitinib + Pemetrexed; first compound 0.2 µM) | relative viability (Sunitinib + Pemetrexed; first compound 0.6325 µM) | relative viability (Sunitinib + Pemetrexed; first compound 2 µM) | relative viability (Sunitinib + Bortezomib; first compound 0.02 µM) | relative viability (Sunitinib + Bortezomib; first compound 0.06325 µM) | relative viability (Sunitinib + Bortezomib; first compound 0.2 µM) | relative viability (Sunitinib + Bortezomib; first compound 0.6325 µM) | relative viability (Sunitinib + Bortezomib; first compound 2 µM) | relative viability (Sunitinib + Alpelisib; first compound 0.02 µM) | relative viability (Sunitinib + Alpelisib; first compound 0.06325 µM) | relative viability (Sunitinib + Alpelisib; first compound 0.2 µM) | relative viability (Sunitinib + Alpelisib; first compound 0.6325 µM) | relative viability (Sunitinib + Alpelisib; first compound 2 µM)
LCLC-103H | 0.69 | 0.839 | 0.787 | 0.75 | 0.817 | 0.452 | 0.443 | 0.487 | 0.442 | 0.445 | 1.11 | 1.19 | 1.2 | 1.04 | 1.18 | 0.822 | 0.945 | 0.993 | 0.958 | 0.959
LOU-NH91 | 0.899 | 0.903 | 1.01 | 1.05 | 0.875 | 0.388 | 0.38 | 0.389 | 0.382 | 0.448 | 0.586 | 0.48 | 0.463 | 0.426 | 0.494 | – | 0.71 | 0.76 | 0.752 | 0.652
LU99A | 0.267 | 0.27 | 0.271 | 0.321 | 0.295 | 0.199 | 0.185 | 0.198 | 0.151 | 0.162 | 1 | 1.13 | 1.15 | 1.35 | 1.12 | 0.512 | 0.547 | 0.586 | 0.566 | –
LXF-289 | 1.03 | 1.06 | 1.2 | 1.11 | 1.12 | 0.882 | 0.972 | 0.925 | 0.945 | 0.874 | 0.981 | 0.958 | 1.06 | 1.04 | 1.01 | 1.01 | 1.02 | 1.13 | 1.12 | 1.04
NCI-H23 | 0.353 | 0.28 | 0.307 | 0.312 | 0.307 | 0.689 | 0.823 | 0.922 | 0.86 | 0.563 | 0.871 | 1.45 | 1.17 | 1.44 | 0.945 | 0.568 | 0.747 | 0.751 | 0.828 | 0.692
NCI-H322M | 0.83 | 0.771 | 0.798 | 0.802 | 0.745 | 0.654 | 0.601 | 0.652 | 0.62 | 0.577 | 1.19 | 1.35 | 1.52 | 1.42 | 1.35 | 0.728 | 0.739 | 0.855 | 0.822 | 0.664
NCI-H441 | 0.481 | 0.557 | 0.796 | 0.659 | 0.61 | 0.263 | 0.253 | 0.278 | 0.235 | 0.257 | – | 1.05 | 0.533 | 0.281 | 0.558 | – | 0.83 | 0.766 | 0.569 | 0.487
NCI-H460 | 0.41 | 0.484 | 0.614 | 0.473 | 0.578 | 0.0562 | 0.061 | 0.0606 | 0.0589 | 0.0505 | 1.18 | 1.23 | 1.5 | 1.35 | 1.09 | 0.454 | 0.567 | 0.615 | 0.661 | 0.258
NCI-H520 | 0.395 | 0.338 | 0.314 | 0.377 | 0.335 | 0.61 | 0.814 | 0.686 | 0.761 | 0.6 | 0.738 | 0.785 | 0.638 | 0.783 | 0.819 | 1.01 | 0.841 | 0.867 | – | 0.729
NCI-H596 | 0.688 | 0.678 | 0.679 | 0.686 | 0.651 | 0.535 | 0.465 | 0.507 | 0.582 | 0.486 | 0.996 | 1.16 | 0.999 | 1.08 | 1.33 | 0.476 | 0.596 | 0.604 | 0.485 | 0.42
NCI-H647 | 0.536 | 0.517 | 0.655 | 0.639 | 0.396 | 0.189 | 0.197 | 0.187 | 0.209 | 0.193 | 0.936 | 1.29 | 1.4 | 1.03 | 0.923 | 1.05 | 1.04 | 1.36 | 1.21 | 0.82
NCI-H650 | 0.399 | 0.405 | 0.39 | 0.445 | 0.384 | 0.877 | 0.958 | 0.914 | 1.05 | 1.01 | 0.884 | 0.819 | 0.916 | 1.03 | 1.09 | 0.891 | 0.608 | 1.25 | 1.14 | 1.16
NCI-H661 | 0.716 | 0.739 | 0.733 | 0.711 | 0.773 | 0.882 | 0.958 | 0.915 | 0.978 | 0.943 | – | 0.77 | 0.801 | 1 | 0.87 | 0.597 | 0.547 | 0.515 | 0.582 | 0.759
NCI-H838 | 0.757 | 0.766 | 0.812 | 0.731 | 0.58 | 0.239 | 0.258 | 0.263 | 0.243 | 0.228 | 0.831 | 1.04 | 0.914 | 0.859 | 0.744 | – | 0.999 | 1.16 | 0.992 | –
NCI-H1355 | 0.786 | 0.812 | 0.904 | 0.818 | 0.712 | 0.997 | 1.14 | 1.1 | 1.08 | – | 1.2 | 1.31 | 1.28 | 1.2 | 1.27 | 0.73 | 0.848 | – | 0.829 | 0.857
